From patent US12495798B2, “Nicotinamide compound and herbicidal composition comprising compound” (KOREA RESEARCH INSTITUTE OF CHEMICAL TECHNOLOGY, priority 2019, dated 2025)

How the values were obtained:
Type in all cases: in vivo
sorghum [1] = experiment: Herbicidal activity test against upland field weeds (foliar treatment test); conditions: Sorghum, scale 0-100; for plant injury at 50 g/ha: 50 g ai/ha
Outline: (§1)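 Visual 0–100 control ratings relative to untreated plants, taken 14 (or 21) days after spraying foliage at 50 or 75 g a.i./ha. Spray solution: 50% acetone with 0.1% Tween-20; plants kept in greenhouse at 30±5 °C, 14 h light/10 h dark.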

cocklebur = experiment: Herbicidal activity test against upland field weeds (soil treatment test); parameters: key to Soil treatment herbicidal activity, Cocklebur: 0 (no control); 100 (complete control); conditions: scale 0 (no control) to 100 (complete control); for Soil treatment herbicidal activity, Cocklebur: 50 g ai/ha
Outline: (§2)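 Weed control scored visually on a 0 (none) to 100 (complete) scale versus untreated pots at 14 or 21 days in greenhouse (30±5 °C, 14 h light). Test compounds, 50 or 75 g a.i./ha in 50% acetone/0.1% Tween-20, hand-sprayed onto soil one day post-sowing.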

rice = experiment: Phytotoxicity test for field crops (soil treatment test); parameters: key: 0 (no harm); 9 (complete withered)
Outline: (§3)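 Crops sown in sterilized horticultural soil (pH 6.1, organic material 1.0%) with mixed fertilizer (N:P:K=17:21:17); one day after sowing, soil sprayed with compound in 33% acetone/0.1% Tween-20 at 19˜300 g a.i./ha. Greenhouse at 30±5° C, 14/10 h light/dark; injury scored visually 0–9 versus untreated control at 10 and 20 days.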

wheat = experiment: as above; parameters: key: 0 (no harm); 9 (complete withered)
Outline: as §3

soybean = experiment: as above; parameters: key: 0 (no harm); 9 (complete withered)
Outline: as §3

corn = experiment: as above; parameters: key: 0 (no harm); 9 (complete withered)
Outline: as §3

cotton = experiment: as above; parameters: key: 0 (no harm); 9 (complete withered)
Outline: as §3

sorghum [2] = experiment: Herbicidal activity test against upland field weeds (soil treatment test); parameters: key to Soil treatment herbicidal activity, Sorghum: 0 (no control); 100 (complete control); conditions: scale 0 (no control) to 100 (complete control)
Outline: as §2

crabgrass [3] = experiment: Herbicidal activity test against upland field weeds (foliar treatment test); conditions: Digitaria sanguinalis, scale 0-100; for pest or weed control at 50 g/ha: 50 g ai/ha
Outline: as §1

fall panicum = experiment: Herbicidal activity test against upland field weeds (soil treatment test); parameters: key to Soil treatment herbicidal activity, Fall panicum: 0 (no control); 100 (complete control); conditions: scale 0 (no control) to 100 (complete control); for pest or weed control at 50 g/ha: Panicum dichotomiflorum, 50 g ai/ha
Outline: as §2

quack grass = experiment: Herbicidal activity test against upland field weeds (foliar treatment test); parameters: key to Foliar treatment herbicidal activity, quack grass: 0 (no control); 100 (complete control); conditions: scale 0-100
Outline: as §1

crabgrass [4] = experiment: Herbicidal activity test against upland field weeds (soil treatment test); parameters: key to Soil treatment herbicidal activity, Crabgrass: 0 (no control); 100 (complete control); conditions: scale 0 (no control) to 100 (complete control); for pest or weed control at 50 g/ha / Soil treatment herbicidal activity, Crabgrass: 50 g ai/ha
Outline: as §2

indian jointvetch = experiment: as above; parameters: key to Soil treatment herbicidal activity, Indian jointvetch: 0 (no control); 100 (complete control); conditions: scale 0 (no control) to 100 (complete control)
Outline: as §2

bindweed = experiment: Herbicidal activity test against upland field weeds (foliar treatment test); parameters: key to Foliar treatment herbicidal activity, Bindweed: 0 (no control); 100 (complete control); conditions: scale 0-100
Outline: as §1

[5] = 50 g ai/ha, Rice (10 days after treatment)
[6] = 50 g ai/ha, Rice (20 days after treatment)
[7] = 50 g ai/ha, Wheat (10 days after treatment)
[8] = 50 g ai/ha, Wheat (20 days after treatment)
[9] = 50 g ai/ha, Soybean (10 days after treatment)
[10] = 50 g ai/ha, Soybean (20 days after treatment)
[11] = 50 g ai/ha, Corn (10 days after treatment)
[12] = 50 g ai/ha, Corn (20 days after treatment)
[13] = 50 g ai/ha, Cotton (10 days after treatment)
[14] = 50 g ai/ha, Cotton (20 days after treatment)
[15] = 100 g ai/ha, Rice (10 days after treatment)
[16] = 100 g ai/ha, Rice (20 days after treatment)
[17] = 100 g ai/ha, Wheat (10 days after treatment)
[18] = 100 g ai/ha, Wheat (20 days after treatment)
[19] = 100 g ai/ha, Soybean (10 days after treatment)
[20] = 100 g ai/ha, Soybean (20 days after treatment)
[21] = 100 g ai/ha, Corn (10 days after treatment)
[22] = 100 g ai/ha, Corn (20 days after treatment)
[23] = 100 g ai/ha, Cotton (10 days after treatment)
[24] = 100 g ai/ha, Cotton (20 days after treatment)

Structure (SMILES)	plant injury at 50 g/ha (sorghum [1])	Soil treatment herbicidal activity, Cocklebur (cocklebur)	Soil treatment phytotoxicity, Rice (rice; [5])	Soil treatment phytotoxicity, Rice (rice; [6])	Soil treatment phytotoxicity, Wheat (wheat; [7])	Soil treatment phytotoxicity, Wheat (wheat; [8])	Soil treatment phytotoxicity, Soybean (soybean; [9])	Soil treatment phytotoxicity, Soybean (soybean; [10])	Soil treatment phytotoxicity, Corn (corn; [11])	Soil treatment phytotoxicity, Corn (corn; [12])	Soil treatment phytotoxicity, Cotton (cotton; [13])	Soil treatment phytotoxicity, Cotton (cotton; [14])	pest or weed control at 50 g/ha (crabgrass [3])	pest or weed control at 50 g/ha (fall panicum)	Foliar treatment herbicidal activity, quack grass (quack grass; 50 g ai/ha)	Soil treatment phytotoxicity, Rice (rice; [15])	Soil treatment phytotoxicity, Rice (rice; [16])	Soil treatment phytotoxicity, Wheat (wheat; [17])	Soil treatment phytotoxicity, Wheat (wheat; [18])	Soil treatment phytotoxicity, Soybean (soybean; [19])	also measured
Cn1nnc(COCc2nc(C(F)(F)F)ccc2C(=O)N(c2nnnn2C)S(C)(=O)=O)n1 [Compound No. 2-69, N-(1-methyl-1H-tetrazol-5-yl)-2-(((2-methyl-2H-tetrazol-5-yl)methoxy)methyl)-N-(methylsulfonyl)-6-(trifluoromethyl)nicotinamide]	40%	0	7	8	0	1	0	0	0	0	1	5	70%	98%	0						plant injury at 50 g/ha (sorghum [2]; Sorghum, 50 g ai/ha): 70%; pest or weed control at 50 g/ha (crabgrass [4]; Digitaria sanguinalis): 98%; Soil treatment herbicidal activity, Indian jointvetch (indian jointvetch; 50 g ai/ha): 100; pest or weed control at 50 g/ha (bindweed; 50 g ai/ha): 40%
Cn1ncnc1COCc1nc(C(F)(F)F)ccc1C(=O)Nc1nnnn1C [Compound No. 1-102, 2-(((1-methyl-1H-1,2,4-triazol-5-yl)methoxy)methyl)-N-(1-methyl-1H-tetrazol-5-yl)-6-(trifluoromethyl)nicotinamide]	50%	0	5	5	0		0	0	0	0	0	0	70%	70%	0	5	6	0	0	0	Soil treatment phytotoxicity, Soybean (soybean; [20]): 0; Soil treatment phytotoxicity, Corn (corn; [21]): 0; Soil treatment phytotoxicity, Corn (corn; [22]): 0; Soil treatment phytotoxicity, Cotton (cotton; [23]): 1; Soil treatment phytotoxicity, Cotton (cotton; [24]): 2; Soil treatment herbicidal activity, Sorghum (sorghum [2]; 50 g ai/ha): 0; pest or weed control at 50 g/ha (crabgrass [4]; Digitaria sanguinalis): 20%; pest or weed control at 50 g/ha (indian jointvetch; 50 g ai/ha): 20%; pest or weed control at 50 g/ha (bindweed; 50 g ai/ha): 60%
Cn1nnc(COCc2nc(C(F)(F)C(F)(F)F)ccc2C(=O)Nc2nnnn2C)n1 [Compound No. 2-81, N-(1-methyl-1H-tetrazol-5-yl)-2-(((2-methyl-2H-tetrazol-5-yl)methoxy)methyl)-6-(perfluoroethyl)nicotinamide]	40%	100	6	7	0	0	0	0	0	0	0	4	70%	98%	0	8	8	0	0	0	Soil treatment phytotoxicity, Soybean (soybean; [20]): 0; Soil treatment phytotoxicity, Corn (corn; [21]): 1; Soil treatment phytotoxicity, Corn (corn; [22]): 0; Soil treatment phytotoxicity, Cotton (cotton; [23]): 1; Soil treatment phytotoxicity, Cotton (cotton; [24]): 6; plant injury at 50 g/ha (sorghum [2]; Sorghum, 50 g ai/ha): 50%; Soil treatment herbicidal activity, Crabgrass (crabgrass [4]): 100; Soil treatment herbicidal activity, Indian jointvetch (indian jointvetch; 50 g ai/ha): 100; pest or weed control at 50 g/ha (bindweed; 50 g ai/ha): 60%
CN(Cc1nnn(C)n1)c1nc(C(F)(F)F)ccc1C(=O)Nc1nnnn1C [Compound No. 2-26, 2-(methyl((2-methyl-2H-tetrazol-5-yl)methyl)amino)-N-(1-methyl-1H-tetrazol-5-yl)-6-(trifluoromethyl)nicotinamide]			3	9	0	0	6	4	0	0	1	4				6	9	0	0	7	plant injury at 75 g/ha (sorghum [1]; 75 g ai/ha): 10%; pest or weed control at 75 g/ha (cocklebur; Xanthium strumarium, 75 g ai/ha): 98%; Soil treatment phytotoxicity, Soybean (soybean; [20]): 7; Soil treatment phytotoxicity, Corn (corn; [21]): 0; Soil treatment phytotoxicity, Corn (corn; [22]): 0; Soil treatment phytotoxicity, Cotton (cotton; [23]): 1; Soil treatment phytotoxicity, Cotton (cotton; [24]): 4; plant injury at 75 g/ha (sorghum [2]; Sorghum, 75 g ai/ha): 20%; pest or weed control at 75 g/ha (crabgrass [3]; 75 g ai/ha): 95%; Soil treatment herbicidal activity, Fall panicum (fall panicum; 75 g ai/ha): 100; Foliar treatment herbicidal activity, quack grass (quack grass; 75 g ai/ha): 0; pest or weed control at 75 g/ha (crabgrass [4]; Digitaria sanguinalis, 75 g ai/ha): 98%; Soil treatment herbicidal activity, Indian jointvetch (indian jointvetch; 75 g ai/ha): 100; pest or weed control at 75 g/ha (bindweed; 75 g ai/ha): 95%
Cn1nnc(COCc2nc(C(F)(F)F)ccc2C(=O)N(C(=O)c2ccccc2)c2nnnn2C)n1 [Compound No. 2-68, N-benzoyl-N-(1-methyl-1H-tetrazol-5-yl)-2-(((2-methyl-2H-tetrazol-5-yl)methoxy)methyl)-6-(trifluoromethyl)nicotinamide]	80%	0	6	7	0	0	0	0	0	0	1	5	98%	90%	0	8	9	0	0	0	Soil treatment phytotoxicity, Soybean (soybean; [20]): 0; Soil treatment phytotoxicity, Corn (corn; [21]): 0; Soil treatment phytotoxicity, Corn (corn; [22]): 0; Soil treatment phytotoxicity, Cotton (cotton; [23]): 3; Soil treatment phytotoxicity, Cotton (cotton; [24]): 9; plant injury at 50 g/ha (sorghum [2]; Sorghum, 50 g ai/ha): 40%; Soil treatment herbicidal activity, Crabgrass (crabgrass [4]): 100; Soil treatment herbicidal activity, Indian jointvetch (indian jointvetch; 50 g ai/ha): 100; Foliar treatment herbicidal activity, Bindweed (bindweed; 50 g ai/ha): 100
